Laboratory results from the supplement of paper PMC9663587.

What was measured:
Taselisib/GDC0032 = compound: Cc1nc(-c2cn3c(n2)-c2ccc(-c4cnn(C(C)(C)C(N)=O)c4)cc2OCC3)n(C(C)C)n1 [Taselisib/GDC0032]
BSJ-01-175 = compound: CN(C)C/C=C/C(=O)Nc1ccc(O[C@@H]2CCC[C@@H](Nc3ncc(Cl)c(-c4c[nH]c5ccccc45)n3)C2)cc1 [BSJ-01-175]
Paclitaxel = compound: CC(=O)O[C@H]1C(=O)[C@@]2(C)[C@H]([C@H](OC(=O)c3ccccc3)[C@]3(O)C[C@H](OC(=O)[C@H](O)[C@@H](NC(=O)c4ccccc4)c4ccccc4)C(C)=C1C3(C)C)[C@]1(OC(C)=O)CO[C@@H]1C[C@@H]2O [Paclitaxel]
Olaparib/AZD2281 = compound: O=C(c1cc(Cc2n[nH]c(=O)c3ccccc23)ccc1F)N1CCN(C(=O)C2CC2)CC1 [Olaparib/AZD2281]
ABT-737 = compound: CN(C)CC[C@H](CSc1ccccc1)Nc1ccc(S(=O)(=O)NC(=O)c2ccc(N3CCN(Cc4ccccc4-c4ccc(Cl)cc4)CC3)cc2)cc1[N+](=O)[O-] [ABT-737]
Ipatasertib/GDC0068 = compound: CC(C)NC[C@@H](C(=O)N1CCN(c2ncnc3c2[C@H](C)C[C@H]3O)CC1)c1ccc(Cl)cc1 [Ipatasertib/GDC0068]
Flavopiridol [1] = compound: T1, CN1CC[C@H](c2c(O)cc(O)c3c(=O)cc(-c4ccccc4Cl)oc23)[C@H](O)C1 [Flavopiridol]
Doxorubicin = compound: COc1cccc2c1C(=O)c1c(O)c3c(c(O)c1C2=O)C[C@@](O)(C(=O)CO)C[C@@H]3O[C@H]1C[C@H](N)[C@H](O)[C@H](C)O1 [Doxorubicin]
Luminespib/NVP-AUY922 = compound: CCNC(=O)c1noc(-c2cc(C(C)C)c(O)cc2O)c1-c1ccc(CN2CCOCC2)cc1 [Luminespib/NVP-AUY922]
LEE011/Ribociclib = compound: CN(C)C(=O)c1cc2cnc(Nc3ccc(N4CCNCC4)cn3)nc2n1C1CCCC1 [LEE011/Ribociclib]; assay: GR value, 72 h; higher = faster growth (1 = untreated, <0 = killing);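 note: breast cancer and non-malignant breast epithelial lines, nine half-log doses, viable cells counted by Hoechst and LIVE/DEAD dye imaging versus time-zero plates and DMSO controls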
[2] = compound: CCc1cnn2c(NCc3ccc[n+]([O-])c3)cc(N3CCCC[C@H]3CCO)nc12; assay: as above
[3] = compound: CC(=O)c1c(C)c2cnc(Nc3ccc(N4CCNCC4)cn3)nc2n(C2CCCC2)c1=O; assay: as above
THZ531 = compound: CN(C)C/C=C/C(=O)Nc1ccc(C(=O)N2CCC[C@@H](Nc3ncc(Cl)c(-c4c[nH]c5ccccc45)n3)C2)cc1 [THZ531]; assay: as above
Flavopiridol [4] = compound: T1, Flavopiridol; assay: as above
YKL-5-124 = compound: C=CC(=O)Nc1ccc(C(=O)Nc2[nH]nc3c2CN(C(=O)N[C@H](CN(C)C)c2ccccc2)C3(C)C)cc1 [YKL-5-124]; assay: as above
BSJ-03-123 = compound: CC(=O)c1c(C)c2cnc(Nc3ccc(N4CCN(CCOCCOCCOCCNC(=O)COc5cccc6c5C(=O)N(C5CCC(=O)NC5=O)C6=O)CC4)cn3)nc2n(C2CCCC2)c1=O [BSJ-03-123]; assay: as above
[5] = compound: CCN1CCN(Cc2ccc(Nc3ncc(F)c(-c4cc(F)c5nc(C)n(C(C)C)c5c4)n3)nc2)CC1; assay: as above
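Throughout, for GR50, 72 h: breast cancer and non-malignant breast epithelial cell lines, Deep Dye Drop or Dye Drop imaging, nine half-log doses, GR normalized to time-zero plates and DMSO-only controls.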

BT549
GR50, 72 h (Taselisib/GDC0032): 2.21 µM
GR50, 72 h (BSJ-01-175): 0.737 µM
GR50, 72 h (Paclitaxel): 0.00272 µM
GR50, 72 h (Olaparib/AZD2281): > 10 µM
GR50, 72 h (ABT-737): > 10 µM
GR50, 72 h (Ipatasertib/GDC0068): > 10 µM
GR50, 72 h (Flavopiridol [1]): 0.161 µM
GR50, 72 h (Doxorubicin): 0.00648 µM
GR50, 72 h (Luminespib/NVP-AUY922): 0.00539 µM
GR value (LEE011/Ribociclib; 0.001 µM): 0.972 GR
GR value (LEE011/Ribociclib; 0.003162 µM): 1.06 GR
GR value (LEE011/Ribociclib; 0.01 µM): 0.919 GR
GR value (LEE011/Ribociclib; 0.03162 µM): 0.997 GR
GR value (LEE011/Ribociclib; 0.1 µM): 1 GR
GR value (LEE011/Ribociclib; 0.3162 µM): 0.995 GR
GR value (LEE011/Ribociclib; 1 µM): 1 GR
GR value (LEE011/Ribociclib; 3.162 µM): 0.966 GR
GR value (LEE011/Ribociclib; 10 µM): 0.992 GR
GR value ([2]; 0.0001 µM): 0.971 GR
GR value ([2]; 0.0003162 µM): 1.02 GR
GR value ([2]; 0.001 µM): 1 GR
GR value ([2]; 0.003162 µM): 0.996 GR
GR value ([2]; 0.01 µM): 0.698 GR
GR value ([2]; 0.03162 µM): -0.221 GR
GR value ([2]; 0.1 µM): -0.261 GR
GR value ([2]; 0.3162 µM): -0.275 GR
GR value ([2]; 1 µM): -0.293 GR
GR value ([3]; 0.0003162 µM): 1.02 GR
GR value ([3]; 0.001 µM): 1.04 GR
GR value ([3]; 0.003162 µM): 1.03 GR
GR value ([3]; 0.01 µM): 1.06 GR
GR value ([3]; 0.03162 µM): 1.06 GR
GR value ([3]; 0.1 µM): 1.04 GR
GR value ([3]; 0.3162 µM): 1.03 GR
GR value ([3]; 1 µM): 1.08 GR
GR value ([3]; 3.162 µM): 1.07 GR
GR value (THZ531; 0.0001 µM): 0.997 GR
GR value (THZ531; 0.0003162 µM): 0.974 GR
GR value (THZ531; 0.001 µM): 1.01 GR
GR value (THZ531; 0.003162 µM): 1.01 GR
GR value (THZ531; 0.01 µM): 1.04 GR
GR value (THZ531; 0.03162 µM): 0.956 GR
GR value (THZ531; 0.1 µM): 0.849 GR
GR value (THZ531; 0.3162 µM): 0.51 GR
GR value (THZ531; 1 µM): -0.378 GR
GR value (Flavopiridol [4]; 0.0001 µM): 1.03 GR
GR value (Flavopiridol [4]; 0.0003162 µM): 0.982 GR
GR value (Flavopiridol [4]; 0.001 µM): 1.01 GR
GR value (Flavopiridol [4]; 0.003162 µM): 0.958 GR
GR value (Flavopiridol [4]; 0.01 µM): 1.02 GR
GR value (Flavopiridol [4]; 0.03162 µM): 0.894 GR
GR value (Flavopiridol [4]; 0.1 µM): 0.695 GR
GR value (Flavopiridol [4]; 0.3162 µM): 0.11 GR
GR value (Flavopiridol [4]; 1 µM): -0.455 GR
GR value (YKL-5-124; 0.001 µM): 0.747 GR
GR value (YKL-5-124; 0.003162 µM): 0.497 GR
GR value (YKL-5-124; 0.01 µM): 0.301 GR
GR value (YKL-5-124; 0.03162 µM): 0.125 GR
GR value (YKL-5-124; 0.1 µM): 0.0904 GR
GR value (YKL-5-124; 0.3162 µM): 0.0362 GR
GR value (YKL-5-124; 1 µM): -0.0144 GR
GR value (YKL-5-124; 3.162 µM): -0.0731 GR
GR value (YKL-5-124; 10 µM): -0.58 GR
GR value (BSJ-03-123; 0.001 µM): 0.998 GR
GR value (BSJ-03-123; 0.003162 µM): 0.999 GR
GR value (BSJ-03-123; 0.01 µM): 1 GR
GR value (BSJ-03-123; 0.03162 µM): 0.988 GR
GR value (BSJ-03-123; 0.1 µM): 0.998 GR
GR value (BSJ-03-123; 0.3162 µM): 0.976 GR
GR value (BSJ-03-123; 1 µM): 0.938 GR
GR value (BSJ-03-123; 3.162 µM): 0.88 GR
GR value (BSJ-03-123; 10 µM): 0.0237 GR
GR value ([5]; 0.001 µM): 0.992 GR
GR value ([5]; 0.003162 µM): 1.03 GR
GR value ([5]; 0.01 µM): 0.997 GR
GR value ([5]; 0.03162 µM): 1.02 GR
GR value ([5]; 0.1 µM): 0.952 GR
GR value ([5]; 0.3162 µM): 0.963 GR
GR value ([5]; 1 µM): 0.895 GR
GR value ([5]; 3.162 µM): 0.588 GR
GR value ([5]; 10 µM): 0.0335 GR
